The record followed here is US10653688B2, “6-(6-membered heteroaryl and aryl)isoquinolin-3-yl carboxamides and preparation and use thereof” (Samumed, LLC, priority 2017, dated 2020).

Assay [1] concerns Wnt activity (SW480 colon carcinoma cells stably expressing the Sp5-Luc reporter gene). Briefly: Wnt activity screening assay (Sp5-Luc reporter gene assay). In kind it is cell-based, human. The settings on record: Homo sapiens; for EC50: 36 to 48 hours; for inhibition at 10 µM: read-out: percent inhibition at 10 μM (given for EC50 >10 μM), 10 μM. The method in brief:
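EC50 values come from a variable-slope four-parameter fit of luminescence normalized to DMSO-only wells. The read-out follows 36–48 h incubation at 37 °C, 5% CO2, in DMEM containing 1% fetal bovine serum. Cells are hygromycin-selected SW480 stably expressing firefly luciferase under a Wnt-responsive Sp5 promoter (eight TCF/LEF sites).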
In general terms: A reporter such as luciferase makes a cellular process visible.

The target in the next assay is recombinant GSK3β kinase (Homo sapiens (Human), UniProt P49841). Briefly: GSK3β kinase assay (Ser/Thr 09 peptide Z-lyte, FRET).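 Note: FRET read-out as coumarin over fluorescein emission ratio, compounds incubated one hour at room temperature, IC50 from dose-response curve fit.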 The format is biochemical.
Assay [2] concerns Tau phosphorylation at Ser396 (pSer396) in SH-SY5Y cells. Briefly: Tau phosphorylation at Ser396 (pSer396) cell assay, ELISA/western blot. In kind it is cell-based, human. As to the method:
SH-SY5Y cells (human neuroblastoma) were cultured in DMEM/F-12 medium supplemented with 15% FBS, Non-essential Amino Acid and Penicillin/Streptomycin. Two days before treatment, cells were seeded onto 96 well plates at 5×10^4 cells/well.
The above synthesized compounds were screened using the cell assay procedure to assess decrease Tau phosphorylation at Ser396 (pSer396) described below.
DMSO-resuspended compounds were dispensed to 8 wells as a serial titration from 10 μM to 4.6 nM final in medium and cells were exposed overnight (16-18 h) in a humidified incubator at 36.6c before harvest.
Cells were lysed with RIPA buffer complemented with phosphatase and protease inhibitors then lysates were spun down at 12,000 g for 10 min to remove any cellular debris. Lysates are then either directly tested for pSer396 by ELISA (Life Technology, Kit KHB7031) or loaded on NuPage Bis-Tris gels for western blot analysis. Colorimetric detection of ELISA signal is performed by Cytation3 plate reader (Biotek) and the chemiluminescence signal for HRP-linked antibodies used in western blotting is detected using a Carestream Image Station. The same pSer396 antibody is used for detection of pTau in both assays.
Blot densitometry for pSer396 and β-actin were analyzed using ImageJ (NIH) and pSer396 Tau ELISA signal was used to plot, draw the curve fitting, and determine each compounds EC50 in Prism (GraphPad).
Background: In an ELISA, binding on a coated surface is turned into a signal by an enzyme label.

Assay [3] has as its system SW480 colon carcinoma cells. Nature of the assay: Cell viability assay (CellTiter-Glo). In kind it is cell-based, human. The settings on record: Homo sapiens; for EC50: 96 h, four days, CellTiter-Glo; for inhibition at 10 µM: read-out: percent inhibition at 10 μM (given for EC50 >10 μM), 10 μM. On the technique in general: Cellular ATP, detected with luciferase, serves as a proxy for viable cell number.

The subject of assay [4] is LL29 cells (primary human fibroblasts derived from IPF patients), α-smooth muscle actin. Briefly: Inhibition of fibrotic process: TGF-β1-treated primary human fibroblasts, αSMA staining.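 For all read-outs here: controls were TGF-β1-stimulated wells with DMSO vehicle as the positive reference and cells given DMSO alone as the negative reference.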 The format is cell-based. The settings on record: Homo sapiens, Fibroblast; for EC50: 96 h, TGF-β1 20 ng/mL, 4 days, % cells positive for αSMA; for inhibition at 10 µM: read-out: percent inhibition at 10 μM (given for EC50 >10 μM), TGF-β1, αSMA, 10 μM.

Assay [5] deals with IL-6 in human peripheral blood mononuclear cells (huPBMCs). Briefly: IL-6 inhibition in LPS-stimulated human peripheral blood mononuclear cells (HTRF). In kind it is cell-based. The settings on record: Homo sapiens, PBMC; for EC50: LPS 50 ng/mL, 22 hours, IL-6 HTRF; for inhibition at 10 µM: read-out: percent inhibition at 10 μM (given for EC50 >10 μM), LPS, IL-6, 10 μM. The method in brief: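 Compound-treated huPBMCs (1×10e6 cells/mL, 1% FBS-RPMI) were stimulated after 2 h with LPS (50 ng/mL) for another 22 h at 37° C. An anti-IL-6 HTRF pair reported IL-6 as the 665/620 nm ratio; activity relative to DMSO, EC50 by 4-parameter Levenberg-Marquardt fitting, duplicates.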

Assay [6] deals with recombinant DYRK1A kinase (Homo sapiens (Human), UniProt Q13627). Briefly: DYRK1A kinase assay (Ser/Thr 18 peptide Z-lyte, FRET).
Protocol: Each compound was dissolved in DMSO as a 10 mM stock and used to prepare compound source plates.
This is a non-radioactive assay using fluorescence resonance energy transfer (FRET) between coumarin and fluorescein to detect kinase activity which is represented as a ratio of coumarin emission/fluorescein emission.
The mixture was allowed to incubate with the representative compounds for one hour at room temperature. All reactions were performed in duplicate. Unphosphorylated (“0% Control”) and phosphorylated (“100% control”) forms of Ser/Thr 18 served as control reactions. Additionally, an 11-point dose-response curve of Staurosporine (luM top) was run to serve as a positive compound control.
After incubation, Development Reagent A was diluted in Development Buffer then added to the reaction and allowed to further incubate for one hour at room temperature.
Dose-response curves were generated and inhibitory concentration (IC50) values were calculated using non-linear regression curve fit in the Dotmatics' Studies Software (Bishops Stortford, UK).
In assay [7] the test system is secreted cytokines TNFα, IL-6 and KC-GRO in BV-2 cells (mouse microglial cells). Nature of the assay: Secreted cytokines in lipopolysaccharide-stimulated mouse glial cell line. In kind it is cell-based. The settings on record: LPS 250 ng/mL 5 hours, table does not say which cytokine. As to the method: Representative compounds were screened using the cell-based assay procedure for secreted cytokines in a Lipopolysaccharide-stimulated mouse glial cell line described below.
BV-2 cells (mouse microglial cells) were cultured in 1:1 DMEM medium supplemented with 10% FBS, and 1% penicillin/streptomycin.
BV-2 cells are plated at 35,000 cells/well in a volume of 100 μl for at least 4 hours before compounds are added. DMSO-resuspended compounds were first dispensed in a 96-well plate and serial diluted from 10 μM to 4.6 nM final concentration in medium. Compounds were added to cells overnight. 250 ng/mL of lipopolysaccharide (Escherichia coli O111:B4, SIGMA) was added for 5 hours. Supernatant is removed and saved for further cytokine detection. The original plates with seeded cells were tested for cytotoxicity by measure of adenosine triphosphate (ATP) release by adding CellTiter-Glo® diluted 1:4 in distilled water (G7573, Promega) and transferring lysed cells to a completely black 96-well plate to be read with the Cytation3. Supernatant was then diluted 1:2 with a diluent from V-PLEX cytokine Kit and directly tested for the secreted cytokines TNFα, IL-6 and KC-GRO using electrochemiluminescence (Meso Scale Discovery). The standard curve for each cytokine was used to convert the electrochemiluminescent signal into pg of protein per mL. The signal was used to plot, draw the curve fitting, and determine each compounds EC50 in Prism (GraphPad).

Assay [8] concerns pT212Tau in Dyrk1a- and MAPT-overexpressing HEK293T cells. Briefly: Tau phosphorylation at Threonine 212 (pT212Tau) sandwich ELISA in double transfected cells. The settings on record: Homo sapiens, HEK-293T, read-out: Thr212 EC50 (μM).
Protocol: HEK293T cells (transfectable human embryonic kidney cells) were cultured in DMEM medium supplemented with 10% FBS and 1% penicillin/streptomycin.
HEK293T cells were transiently transfected to overexpress Dyrk1a and microtubule-associated protein Tau (MAPT) genes. Specifically, Dyrk1a and MAPT expression vectors were obtained from OriGene (10 μg of each, catalog numbers SC314641 and RC216166, respectively). […] HEK293T cells were seeded at 1.0×10^7 cells in 10 mL per T-75 flask. […] One T-75 flask was designated as a no-vector negative control for pT212Tau signal.
After 4-6 hours of incubation in transfection reagents, transiently double transfected HEK293T cells were dissociated by treatment with trypsin EDTA and seeded at 1.0×10^5 cells in 100 μL per well in 96-well plates. No-vector negative controls were seeded in separate 96-well plates to avoid the risk of the negative control cells picking up the overexpression during incubation.
96-well flat-bottom plates were coated with 100 μL per well anti-HT7 capture antibody (ThermoFisher, MN1000) diluted 1:300 in 1×PBS at 4° C. overnight, with shaking at 500 rpm.
Cells were then lysed with 100 μL 1×RIPA buffer supplemented with phosphatase and protease inhibitors (each diluted to a final 1×). […] V-bottom plates were centrifuged at 4000 rpm, 4° C., for 15 minutes, and 100 μL of lysate supernatant from each well was directly tested for pT212Tau signal by sandwich ELISA.
[9] abbreviates: GSK3β kinase, head says EC50, method says IC50, ATP 46 μM.
Setting [10] is: Homo sapiens, SH-SY5Y cells, overnight (16-18 h), read-out: pSer396 Tau EC50.
Where [11] appears, read: DYRK1A kinase, head says EC50, method says IC50, ATP 30 μM.

The structures appear in SMILES notation. Read-outs that look alike come from different tables or passages of the source.

Chain of recombinant GSK3β kinase (P49841 whole entry): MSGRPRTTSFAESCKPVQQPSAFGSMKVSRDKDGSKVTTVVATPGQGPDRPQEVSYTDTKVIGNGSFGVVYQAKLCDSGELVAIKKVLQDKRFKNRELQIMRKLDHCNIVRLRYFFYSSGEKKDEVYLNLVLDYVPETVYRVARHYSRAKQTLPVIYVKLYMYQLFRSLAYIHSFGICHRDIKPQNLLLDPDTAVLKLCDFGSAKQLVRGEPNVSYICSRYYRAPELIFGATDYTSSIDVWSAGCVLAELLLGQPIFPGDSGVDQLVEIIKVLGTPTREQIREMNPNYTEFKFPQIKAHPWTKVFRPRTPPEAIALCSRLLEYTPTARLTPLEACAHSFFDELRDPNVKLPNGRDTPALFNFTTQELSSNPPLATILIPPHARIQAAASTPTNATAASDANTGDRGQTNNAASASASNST

Take `CN1CCC(C(=O)Nc2cc3cc(-c4ccccn4)ccc3cn2)CC1` [Compound 3, 1-Methyl-N-(6-(pyridin-2-yl)isoquinolin-3-yl)piperidine-4-carboxamide]: the EC50 (commonly the concentration at which the effect is half-maximal) is above 10 µM in assay [1]; 5.31 µM at recombinant GSK3β kinase (setting [9]); above 10 µM in assay [2] (setting [10]); above 10 µM in [3]; 6.01 µM in assay [4]; above 10 µM in assay [5]. Further, the 50% effective concentration (EC50) in [6] (setting [11]) came to 0.26 µM. Further, the inhibition (as a rule, the drop in the measured response relative to a control, in per cent) at 10 µM in assay [1] turned out to be 13.7%; in assay [3] it was 50%; in [5], 5.1%.

Turning to `O=C(Nc1cc2cc(-c3cncc(C(F)F)c3)ccc2cn1)c1cccc(C2CCNCC2)c1` [Compound 26, N-(6-(5-(Difluoromethyl)pyridin-3-yl)isoquinolin-3-yl)-3-(piperidin-4-yl)benzamide], the EC50 in [1] is 1.55 µM; at recombinant GSK3β kinase (setting [9]), above 10 µM; in assay [3], 1.86 µM; in assay [4] it was 1.33 µM; in assay [7], 0.479 µM; in assay [5] it was 1.32 µM. The EC50 in [6] (setting [11]) was found to be 0.029 µM; in [8], 1.4 µM.

In the case of `CN1CCC(c2cccc(C(=O)Nc3cc4cc(-c5cncc(C(F)F)c5)ccc4cn3)c2)CC1` [Compound 27, N-(6-(5-(Difluoromethyl)pyridin-3-yl)isoquinolin-3-yl)-3-(1-methylpiperidin-4-yl)benzamide], the half-maximal effective concentration (EC50) in [1] is 1.11 µM; on recombinant GSK3β kinase (setting [9]), above 10 µM; in assay [3] it was 1.95 µM; in assay [4], 0.979 µM; in [7], 0.847 µM; in assay [5] it was 9.16 µM. Further, the EC50 in [6] (setting [11]) worked out at 0.029 µM; in [8], 6.8 µM.

Consider `CN1CCN(c2cc(C(=O)Nc3cc4cc(-c5cncc(C(F)F)c5)ccc4cn3)ccn2)CC1` [Compound 28, N-(6-(5-(Difluoromethyl)pyridin-3-yl)isoquinolin-3-yl)-2-(4-methylpiperazin-1-yl)isonicotinamide], for which the EC50 is 4.67 µM in assay [1]; above 10 µM on recombinant GSK3β kinase (setting [9]); 4.15 µM in assay [3]; 1.52 µM in assay [4]; 0.295 µM in assay [7]; 7.43 µM in [5]. Moreover, the concentration for a half-maximal effect (EC50) came out at 0.011 µM in assay [6] (setting [11]) and 1.6 µM in assay [8].

Turning to `CN1CCN(CC(=O)Nc2cc3cc(-c4cncc(C(F)(F)F)c4)ccc3cn2)CC1` [Compound 29, 2-(4-Methylpiperazin-1-yl)-N-(6-(5-(trifluoromethyl)pyridin-3-yl)isoquinolin-3-yl)acetamide], the 50% effective concentration (EC50) was 9.85 µM in [1]; above 10 µM on recombinant GSK3β kinase (setting [9]); above 10 µM in assay [2] (setting [10]); 4 µM in assay [3]; 4.02 µM in [4]; above 10 µM in [5]. For the same compound, the concentration for a half-maximal effect (EC50) in [6] (setting [11]) came to 0.608 µM. Further, the inhibition at 10 µM in assay [5] is 4.3%.

Turning to `CN1CCC(C(=O)Nc2cc3cc(-c4cncc(CO)c4)ccc3cn2)CC1` [Compound 31, N-(6-(5-(Hydroxymethyl)pyridin-3-yl)isoquinolin-3-yl)-1-methylpiperidine-4-carboxamide], the 50% effective concentration (EC50) in assay [1] is 0.862 µM; on recombinant GSK3β kinase it was 0.698 µM; in [2] (setting [10]), 9.1 µM; in assay [3], 0.859 µM; in assay [4], 0.45 µM; in assay [5], 8.94 µM. Moreover, the half-maximal effective concentration (EC50) in [6] amounted to 0.003 µM.

For the compound `O=C(CN1CCOCC1)Nc1cc2cc(-c3cccnn3)ccc2cn1` [Compound 66, 2-morpholino-N-(6-(pyridazin-3-yl)isoquinolin-3-yl)acetamide], the half-maximal effective concentration (EC50) in assay [1] is above 10 µM; on recombinant GSK3β kinase it was 0.859 µM; in assay [3] it was above 10 µM; in assay [4], above 10 µM; in assay [7] it was 2.97 µM; in assay [5] it was above 10 µM. Besides, the EC50 in assay [6] worked out at 0.123 µM; in assay [8] it was 0.791 µM. Besides, the inhibition at 10 µM in [1] amounted to 8.2%; in assay [3], 17.5%; in assay [4], 10.6%; in [5] it was 8.1%.

Take `O=C(CN1CCCC1)Nc1cc2cc(-c3cnccn3)ccc2cn1` [Compound 74, N-(6-(Pyrazin-2-yl)isoquinolin-3-yl)-2-(pyrrolidin-1-yl)acetamide]: the concentration for a half-maximal effect (EC50) in assay [1] is above 10 µM; on recombinant GSK3β kinase (setting [9]), 1.69 µM; in assay [3] it was above 10 µM; in assay [4], above 10 µM; in assay [7], 1.43 µM; in assay [5], above 10 µM. The EC50 in assay [6] (setting [11]) is 0.094 µM; in assay [8], 2.1 µM. Moreover, the inhibition at 10 µM in [1] was found to be 17.5%; in assay [3], 125%; in assay [4], 18.7%; in assay [5] it was 4.9%.

Take `O=C(CN1CCOCC1)Nc1cc2cc(-c3cnccn3)ccc2cn1` [Compound 79, 2-Morpholino-N-(6-(pyrazin-2-yl)isoquinolin-3-yl)acetamide]: the EC50 was above 10 µM in [1]; 1.31 µM on recombinant GSK3β kinase (setting [9]); above 10 µM in assay [3]; above 10 µM in assay [4]; 1.7 µM in [7]; above 10 µM in assay [5]. Moreover, the EC50 in [6] (setting [11]) amounted to 0.079 µM; in [8], 0.959 µM. The inhibition at 10 µM in [1] turned out to be 7.9%; in assay [3], 24.8%; in assay [4], 17.2%; in [5], 3.9%.

On to `CC(C)(O)CN1CCCC(C(=O)Nc2cc3cc(-c4cnccn4)ccc3cn2)CC1` (centres unmarked) [Compound 82, 1-(2-Hydroxy-2-methylpropyl)-N-(6-(pyrazin-2-yl)isoquinolin-3-yl)azepane-4-carboxamide], for which the EC50 in assay [1] was above 10 µM; at recombinant GSK3β kinase, 1.54 µM; in assay [3], above 10 µM; in [4], 3.15 µM; in assay [7], 0.717 µM; in assay [5], above 10 µM. Besides, the results for the EC50 in assay [6] and in assay [8] were 0.027 µM and 0.192 µM, respectively. The inhibition at 10 µM in [1] turned out to be 3.4%; in assay [3] it was 20%; in assay [5], 9.9%.

As to `COc1ccc2c(c1)[nH]c1c(C)nccc12` [Harmine, reference compound], the EC50 in assay [2] (Homo sapiens, SH-SY5Y, read-out: EC50 in the Tau assay) is above 10 µM.

On to `CCN1/C(=C/C(C)=O)Sc2ccc(O)cc21` [Indy, reference compound], for which the EC50 in assay [2] (control DYRK1A inhibitors, printed '>10 M' (μ apparently lost), read-out: EC50 in the Tau assay) is above 10 µM.
